Series [1] relates to SMN2 minigene mRNA (SMN2-A minigene) in HEK293H cells. Briefly: SMN2 minigene mRNA splicing RT-qPCR assay in cultured cells. Type of series: cell-based, human. Particulars: Homo sapiens, HEK293-H; concentration increasing full length SMN2 mRNA 1.5-fold relative to vehicle-treated cells; HEK293H cells with SMN2-A minigene, 24 hours, 7-point concentration data; read-out: EC1.5x for production of full length SMN2 mRNA. The gist of the method: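 HEK293H cells stably carrying the SMN2-A minigene were treated for 24 h at 37 °C with a 7-point, 3.16-fold dilution series of compound. Multiplex RT-qPCR measured exon 7-containing minigene FL mRNA against GAPDH, expressed relative to vehicle by modified ΔΔCt; the EC1.5× is the concentration giving a 1.5-fold increase.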
Background: Real-time PCR tracks product formation cycle by cycle.

Series [2] relates to Smn protein in SMA patient fibroblast cells (GM03813). In words: Smn protein assay in cultured cells (SMN HTRF). Particulars: SMA patient fibroblast cells, 48 hours; for EC1.5x for Smn protein expression: 7-point concentration curve, SMN HTRF, concentration producing 1.5 times Smn protein vs DMSO vehicle control; for maximum fold (Fold) increase of Smn protein: 7-point concentration data, fold relative to vehicle control. Type of series: cell-based, human. Put shortly: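 SMA patient fibroblasts (5,000 cells/well, DMEM-10% FBS) were treated for 48 h at 37 °C with a 7-point, 3.16-fold dilution series in triplicate. RIPA lysates were probed by HTRF (anti-SMN d2/kryptate, overnight, room temperature), reading 665/620 nm. EC1.5× is the concentration giving 1.5-fold Smn over DMSO vehicle.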
(TR-FRET usually uses a lanthanide donor and a delayed reading to cut background.)

Structures are written as SMILES.

We go through 17 compounds from patent US11753407B2, “Compounds for treating spinal muscular atrophy” (PTC Therapeutics, Inc., priority 2012, dated 2023).

One may read the melting point as the temperature of the solid-liquid transition.

`Cc1cn2cc(-c3cc(=O)n4cc(C5CCN(C)CC5)ccc4n3)cc(C)c2n1` [Compound 614, 2-(2,8-dimethylimidazo[1,2-a]pyridin-6-yl)-7-(1-methylpiperidin-4-yl)-4H-pyrido[1,2-a]pyrimidin-4-one] displayed a melting point of 200 to 202 °C. Moreover, the EC (1.5-fold increase) in series [1] was less than 0.1 µM. In series [2], the “EC1.5x for Smn protein expression” value is listed as “**** (an EC1.5x≤0.3 μM is indicated by four stars (****))” and the “maximum fold (Fold) increase of Smn protein” value (from here on “maximum fold (Fold) increase”) is listed as “***** (a fold increase >1.65 is indicated by five stars (*****))”.
Regarding `CCN1CCC(c2cc(C)c3nc(-c4ccc5nn(C)cc5c4)cc(=O)n3c2)CC1` [Compound 719, 7-(1-ethylpiperidin-4-yl)-9-methyl-2-(2-methyl-2H-indazol-5-yl)-4H-pyrido[1,2-a]pyrimidin-4-one], the melting point fell in the range of 237 to 241 °C. The EC (1.5-fold increase) in series [1] is less than 0.1 µM. Also, in series [2], the “EC1.5x for Smn protein expression” value was “**** (an EC1.5x≤0.3 μM is indicated by four stars (****))”; the “maximum fold (Fold) increase” value was “**** (a fold increase between >1.5 and ≤1.65 is indicated by four stars (****))”.
`Cc1cn2nc(-c3cc(=O)n4cc(N5CCN(C)CC5)ccc4n3)cc2c(C2CC2)n1` [Compound 684, 2-(4-cyclopropyl-6-methylpyrazolo[1,5-a]pyrazin-2-yl)-7-(4-methylpiperazin-1-yl)-4H-pyrido[1,2-a]pyrimidin-4-one] yielded a melting point of 238 to 240 °C. For the same compound, the EC (1.5-fold increase) in series [1] was in the range of 0.1 to 0.3 µM. In series [2], the “EC1.5x for Smn protein expression” value was “*** (an EC1.5× between >0.3 μM and ≤1 μM is indicated by three stars (***))”; the “maximum fold (Fold) increase” value is listed as “***** (a fold increase >1.65 is indicated by five stars (*****))”.
In turn, `CCN1CCC(c2cn3c(=O)cc(-c4ccc5nn(C)cc5c4)nc3cn2)CC1` [Compound 568, 7-(1-ethylpiperidin-4-yl)-2-(2-methyl-2H-indazol-5-yl)-4H-pyrazino[1,2-a]pyrimidin-4-one] had a melting point of 198 to 200 °C. Further, the EC (1.5-fold increase) in series [1] is less than 0.1 µM. Moreover, in series [2], the “EC1.5x for Smn protein expression” value is on record as “**** (an EC1.5x≤0.3 μM is indicated by four stars (****))” and the “maximum fold (Fold) increase” value is reported as “***** (a fold increase >1.65 is indicated by five stars (*****))”.
Turning to `Cc1nc2ccc(-c3cc(=O)n4cc(N5CCN[C@@H](C)C5)ccc4n3)cc2o1` [Compound 134, 2-(2-methyl-1,3-benzoxazol-6-yl)-7-[(3S)-3-methylpiperazin-1-yl]-4H-pyrido[1,2-a]pyrimidin-4-one], the melting point fell in the range of 191 to 193 °C. Further, in series [1], the EC (1.5-fold increase) was less than 0.1 µM. In series [2], the “EC1.5x for Smn protein expression” value is “**** (an EC1.5x≤0.3 μM is indicated by four stars (****))” and the “maximum fold (Fold) increase” value was “***** (a fold increase >1.65 is indicated by five stars (*****))”.
The compound `Cc1cn2cc(-c3cc(=O)n4cc(N5CCNCC5)ccc4n3)nc2c(C)n1` [Compound 118, 2-(6,8-dimethylimidazo[1,2-a]pyrazin-2-yl)-7-(piperazin-1-yl)-4H-pyrido[1,2-a]pyrimidin-4-one] displayed a melting point of 189 to 192 °C. Further, in series [1], the EC (1.5-fold increase) is 0.1 to 0.3 µM. Besides, in series [2], the “EC1.5x for Smn protein expression” value is “*** (an EC1.5× between >0.3 μM and ≤1 μM is indicated by three stars (***))”; the “maximum fold (Fold) increase” value was “***** (a fold increase >1.65 is indicated by five stars (*****))”.
As to `C[C@@H]1CN(c2ccc3nc(-c4ccc5c(cnn5C)c4)cc(=O)n3c2)CCN1` [Compound 545, 2-(1-methyl-1H-indazol-5-yl)-7-[(3R)-3-methylpiperazin-1-yl]-4H-pyrido[1,2-a]pyrimidin-4-one], the melting point lay in the range of 190 to 192 °C. For the same compound, the EC (1.5-fold increase) in series [1] lay within 0.1 to 0.3 µM. Further, in series [2], the “EC1.5x for Smn protein expression” value is “**** (an EC1.5x≤0.3 μM is indicated by four stars (****))” and the “maximum fold (Fold) increase” value is “***** (a fold increase >1.65 is indicated by five stars (*****))”.
For the compound `COc1ccc(-c2cc(=O)n3cc(N4CCCN(C)CC4)ccc3n2)cc1F` [Compound 166, 2-(3-fluoro-4-methoxyphenyl)-7-(4-methyl-1,4-diazepan-1-yl)-4H-pyrido[1,2-a]pyrimidin-4-one], the melting point fell in the range of 176 to 178 °C. Further, in series [1], the EC (1.5-fold increase) was 0.3 to 1 µM. The “maximum fold (Fold) increase” value in series [2] is “** (a fold increase between >1.2 and ≤1.35 is indicated by two stars (**))”.
For the compound `COc1ccc(-c2ccc3nc(N4CC[C@@H](N(C)C)C4)cc(=O)n3c2)cc1F` [Compound 277, 2-[(3R)-3-(dimethylamino)pyrrolidin-1-yl]-7-(3-fluoro-4-methoxyphenyl)-4H-pyrido[1,2-a]pyrimidin-4-one], the melting point was in the range of 167 to 170 °C. In series [1], the EC (1.5-fold increase) lay within 1 to 3 µM. Also, in series [2], the “maximum fold (Fold) increase” value was “*** (a fold increase between >1.35 and ≤1.5 is indicated by three stars (***))”.
`Cc1cn2cc(-c3cc(=O)n4cc(N5CCNCC5)ccc4n3)cc(CO)c2n1` [Cpd 674, 2-[8-(hydroxymethyl)-2-methylimidazo[1,2-a]pyridin-6-yl]-7-(piperazin-1-yl)-4H-pyrido[1,2-a]pyrimidin-4-one] came in with a melting point of more than 320 °C. Besides, the EC (1.5-fold increase) in series [1] is less than 0.1 µM. For the same compound, in series [2], the “EC1.5x for Smn protein expression” value is reported as “**** (an EC1.5x≤0.3 μM is indicated by four stars (****))” and the “maximum fold (Fold) increase” value is “***** (a fold increase >1.65 is indicated by five stars (*****))”.
`Cc1cn(-c2cc(=O)n3cc(N4CCNCC4)ccc3n2)cn1` [Cpd 179, 2-(4-methyl-1H-imidazol-1-yl)-7-(piperazin-1-yl)-4H-pyrido[1,2-a]pyrimidin-4-one]: the melting point was 204 to 206 °C. Also, in series [1], the EC (1.5-fold increase) lay within 0.3 to 1 µM. In addition, in series [2], the “EC1.5x for Smn protein expression” value is “*** (an EC1.5× between >0.3 μM and ≤1 μM is indicated by three stars (***))”; the “maximum fold (Fold) increase” value is on record as “***** (a fold increase >1.65 is indicated by five stars (*****))”.
In turn, `CCc1cc(-c2cc(=O)n3cc(N4CCNCC4)ccc3n2)cn2cc(C)nc12` [Compound 637, 2-(8-ethyl-2-methylimidazo[1,2-a]pyridin-6-yl)-7-(piperazin-1-yl)-4H-pyrido[1,2-a]pyrimidin-4-one] returned a melting point of 264 to 271 °C. In addition, the EC (1.5-fold increase) in series [1] is less than 0.1 µM. Besides, in series [2], the “EC1.5x for Smn protein expression” value is given as “**** (an EC1.5x≤0.3 μM is indicated by four stars (****))” and the “maximum fold (Fold) increase” value was “***** (a fold increase >1.65 is indicated by five stars (*****))”.
Take `Cc1cn2cc(-c3cc(=O)n4nc(C5CCN(C)CC5)ccc4n3)cc(Cl)c2n1` [Compound 524, 2-(8-chloro-2-methylimidazo[1,2-a]pyridin-6-yl)-7-(1-methylpiperidin-4-yl)-4H-pyrimido[1,2-b]pyridazin-4-one]: the melting point lay in the range of 289 to 291 °C. Moreover, the EC (1.5-fold increase) in series [1] lay in the range of 0.1 to 0.3 µM. In series [2], the “EC1.5x for Smn protein expression” value is “*** (an EC1.5× between >0.3 μM and ≤1 μM is indicated by three stars (***))”; the “maximum fold (Fold) increase” value was “***** (a fold increase >1.65 is indicated by five stars (*****))”.
`Cc1cn2nc(-c3cc(=O)n4cc(C5CCN(CCO)CC5)ccc4n3)cc2c(C)n1` [Compound 530, 2-(4,6-dimethylpyrazolo[1,5-a]pyrazin-2-yl)-7-[1-(2-hydroxyethyl)piperidin-4-yl]-4H-pyrido[1,2-a]pyrimidin-4-one] displayed a melting point of 228 to 230 °C. Further, in series [1], the EC (1.5-fold increase) is less than 0.1 µM. Further, in series [2], the “EC1.5x for Smn protein expression” value is reported as “**** (an EC1.5x≤0.3 μM is indicated by four stars (****))” and the “maximum fold (Fold) increase” value is on record as “***** (a fold increase >1.65 is indicated by five stars (*****))”.
The compound `Cc1nc2ccc(-c3cc(=O)n4cc(N5CCCN(C)CC5)ccc4n3)cc2s1` [Compound 254, 2-(2-methyl-1,3-benzothiazol-6-yl)-7-(4-methyl-1,4-diazepan-1-yl)-4H-pyrido[1,2-a]pyrimidin-4-one] had a melting point of 158 to 160 °C. The EC (1.5-fold increase) in series [1] fell in the range of 0.1 to 0.3 µM. In series [2], the “EC1.5x for Smn protein expression” value is “** (an EC1.5× between >1 μM and ≤3 μM is indicated by two stars (**))”; the “maximum fold (Fold) increase” value was “*** (a fold increase between >1.35 and ≤1.5 is indicated by three stars (***))”.
In turn, `COc1ccc(-c2cc(=O)n3cc(N4CCC(N(C)C)CC4)cc(C)c3n2)cc1OC` [Compound 261, 2-(3,4-dimethoxyphenyl)-7-[4-(dimethylamino)piperidin-1-yl]-9-methyl-4H-pyrido[1,2-a]pyrimidin-4-one] registered a melting point of 167 to 171 °C. Also, the EC (1.5-fold increase) in series [1] was less than 0.1 µM. For the same compound, in series [2], the “EC1.5x for Smn protein expression” value was “**** (an EC1.5x≤0.3 μM is indicated by four stars (****))”; the “maximum fold (Fold) increase” value is “**** (a fold increase between >1.5 and ≤1.65 is indicated by four stars (****))”.
Compound `CCc1cc(N2CCN[C@H](C)C2)cn2c(=O)cc(-c3ccc(OC)c(OC)c3)nc12` [Compound 447, 2-(3,4-dimethoxyphenyl)-9-ethyl-7-[(3R)-3-methylpiperazin-1-yl]-4H-pyrido[1,2-a]pyrimidin-4-one] showed a melting point of 140 to 147 °C. Moreover, the EC (1.5-fold increase) in series [1] lay within 0.1 to 0.3 µM. In addition, the “maximum fold (Fold) increase” value in series [2] was “* (A maximum fold increase of ≤1.2 is indicated by one star (*))”.
